Test results taken from PubChem BioAssay (NCI).
Where “and” joins values, the source holds several entries; their conditions need not be identical. Equal values may be shown once.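 1) Cells in 96-well plates. 2) Compound, 48 h, 5 concentrations. 3) Linear interpolation between surrounding doses. 4) Unreached endpoint = highest concentration. GI50 is the concentration that inhibits growth by half. TGI is the concentration that stops growth completely.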

What was measured:
Assay in all cases: NCI anticancer screen, dose series, 48 h
HOP-62 NSCLC = test system: HOP-62 NSCLC
OVCAR-3 ovarian = test system: OVCAR-3 ovarian
NCI/ADR-RES ovarian = test system: NCI/ADR-RES ovarian
MDA-MB-435 = test system: MDA-MB-435
ACHN renal = test system: ACHN renal
NCI-H460 lung = test system: NCI-H460 lung
SF-268 CNS = test system: SF-268 CNS
MDA-N = test system: MDA-N
786-0 renal = test system: 786-0 renal
SK-MEL-5 melanoma = test system: SK-MEL-5 melanoma
OVCAR-4 ovarian = test system: OVCAR-4 ovarian
SF-539 CNS = test system: SF-539 CNS
SF-295 CNS = test system: SF-295 CNS
MALME-3M melanoma = test system: MALME-3M melanoma
SK-MEL-2 melanoma = test system: SK-MEL-2 melanoma
SN12C renal = test system: SN12C renal
MCF7 breast = test system: MCF7 breast
UACC-62 melanoma = test system: UACC-62 melanoma
HS 578T breast = test system: HS 578T breast
MDA-MB-231 breast = test system: MDA-MB-231 breast
UACC-257 melanoma = test system: UACC-257 melanoma
T-47D breast = test system: T-47D breast
HT29 colon = test system: HT29 colon
A549 NSCLC = test system: A549 NSCLC
HCT-116 colon = test system: HCT-116 colon
RXF 393 renal = test system: RXF 393 renal
EKVX NSCLC = test system: EKVX NSCLC
HCC-2998 colon = test system: HCC-2998 colon
SW-620 colon = test system: SW-620 colon
SNB-75 CNS = test system: SNB-75 CNS
SK-MEL-28 melanoma = test system: SK-MEL-28 melanoma
OVCAR-5 ovarian = test system: OVCAR-5 ovarian
A498 renal = test system: A498 renal
SR leukemia = test system: SR leukemia
HOP-92 NSCLC = test system: HOP-92 NSCLC
NCI-H23 lung = test system: NCI-H23 lung
CAKI-1 renal = test system: CAKI-1 renal
NCI-H226 lung = test system: NCI-H226 lung
PC-3 prostate = test system: PC-3 prostate
COLO 205 colon = test system: COLO 205 colon
HCT-15 colon = test system: HCT-15 colon
TK-10 renal = test system: TK-10 renal
KM12 colon = test system: KM12 colon
UO-31 renal = test system: UO-31 renal
BT-549 breast = test system: BT-549 breast
IGROV1 ovarian = test system: IGROV1 ovarian
OVCAR-8 ovarian = test system: OVCAR-8 ovarian
MOLT-4 leukemia = test system: MOLT-4 leukemia
LOX IMVI melanoma = test system: LOX IMVI melanoma
RPMI-8226 leukemia = test system: RPMI-8226 leukemia
HL-60(TB) leukemia = test system: HL-60(TB) leukemia
CCRF-CEM leukemia = test system: CCRF-CEM leukemia
U251 CNS = test system: U251 CNS
SNB-19 CNS = test system: SNB-19 CNS
SK-OV-3 ovarian = test system: SK-OV-3 ovarian
M14 melanoma = test system: M14 melanoma
DU-145 prostate = test system: DU-145 prostate
NCI-H522 lung = test system: NCI-H522 lung
K-562 leukemia = test system: K-562 leukemia

## COC(=O)C1OC(O[C@H]2CC[C@]3(C)[C@H]4CC=C5[C@@H]6CC(C)(C)CC[C@]6(C(=O)OC6OCC(O)C(O)C6OC6OC(C)C(OC7OCC(O)C(OC8OCC(O)C(O)C8O)C7O)C(OC7OCC(O)C(O)C7O)C6O)CC[C@@]5(C)[C@]4(C)CC[C@H]3C2(C)C)C(O)C(OC2OCC(O)C(O)C2O)C1O (some centres not stated)
HOP-62 NSCLC
  GI50: 4.76 µM and 10.9 µM
  TGI: 17.8 µM and 23.7 µM
OVCAR-3 ovarian
  TGI: > 100 µM and 45.9 µM
NCI/ADR-RES ovarian
  TGI: > 100 µM and 21 µM
MDA-MB-435
  TGI: 4.13 µM and 4.42 µM
ACHN renal
  TGI: 22.1 µM and 15.9 µM
NCI-H460 lung
  GI50: > 100 µM and 33.1 µM
  TGI: > 100 µM
SF-268 CNS
  TGI: > 76.2 µM and 19.9 µM
MDA-N
  TGI: 3.35 µM and 4.04 µM
786-0 renal
  TGI: > 100 µM and 16.6 µM
SK-MEL-5 melanoma
  TGI: 7 µM and 12.1 µM
OVCAR-4 ovarian
  TGI: > 100 µM and 20.2 µM
SF-539 CNS
  GI50: > 100 µM and 47.6 µM
  TGI: > 100 µM
SF-295 CNS
  TGI: 11.5 µM and 17 µM
MALME-3M melanoma
  TGI: 19.4 µM and 18.3 µM
SK-MEL-2 melanoma
  TGI: 9.16 µM and 7.73 µM
SN12C renal
  TGI: 5.4 µM and 5.69 µM
MCF7 breast
  TGI: > 84.5 µM and 20.9 µM
UACC-62 melanoma
  TGI: 8.36 µM and 13.7 µM
HS 578T breast
  TGI: > 100 µM and 33.9 µM
MDA-MB-231 breast
  TGI: 8.81 µM and 13.5 µM
UACC-257 melanoma
  TGI: 8.58 µM and 10.8 µM
T-47D breast
  TGI: 42.3 µM and 19.2 µM
HT29 colon
  TGI: 10.1 µM and 10.9 µM
A549 NSCLC
  TGI: 11.3 µM and 11.7 µM
HCT-116 colon
  TGI: > 100 µM and 23.3 µM
RXF 393 renal
  GI50: 6.36 µM and 13.7 µM
  TGI: > 67 µM and 35.6 µM
EKVX NSCLC
  TGI: 16.3 µM and 14.8 µM
HCC-2998 colon
  TGI: 3.13 µM and 3.37 µM
SW-620 colon
  TGI: > 100 µM and 24 µM
SNB-75 CNS
  GI50: 5.19 µM and 11.7 µM
  TGI: 25.3 µM and 26.3 µM
SK-MEL-28 melanoma
  TGI: 4.02 µM and 6.16 µM
OVCAR-5 ovarian
  TGI: 22.5 µM and 15.8 µM
A498 renal
  TGI: 3.55 µM and 4.34 µM
SR leukemia
  TGI: 4.76 µM and 7.55 µM
HOP-92 NSCLC
  TGI: 5.25 µM and 7.62 µM
NCI-H23 lung
  TGI: > 36.7 µM and 16.2 µM
CAKI-1 renal
  TGI: 35.4 µM and 17.9 µM
NCI-H226 lung
  TGI: 11 µM and 17.8 µM
PC-3 prostate
  TGI: 18.9 µM and 16.4 µM
COLO 205 colon
  TGI: 2.97 µM and 3.08 µM
HCT-15 colon
  TGI: > 100 µM and 35.2 µM
TK-10 renal
  TGI: 70.4 µM and 24.4 µM
KM12 colon
  TGI: 10.7 µM and 10.8 µM
UO-31 renal
  TGI: 4.36 µM and 4.14 µM
BT-549 breast
  TGI: 8.45 µM and 9.89 µM
IGROV1 ovarian
  TGI: > 100 µM and 24.9 µM
OVCAR-8 ovarian
  TGI: > 100 µM and 23.3 µM
MOLT-4 leukemia
  TGI: 27.6 µM and 28.4 µM
LOX IMVI melanoma
  TGI: 26.5 µM and 21.6 µM
RPMI-8226 leukemia
  TGI: 9 µM and 15.6 µM
HL-60(TB) leukemia
  TGI: 4.36 µM and 5.23 µM
CCRF-CEM leukemia
  TGI: > 100 µM and 30.2 µM
U251 CNS
  TGI: > 100 µM and 20.6 µM
SNB-19 CNS
  TGI: > 100 µM and 20.1 µM
SK-OV-3 ovarian
  TGI: > 100 µM and 27.8 µM
M14 melanoma
  TGI: 3.7 µM and 5.19 µM
DU-145 prostate
  TGI: > 70.6 µM and 37.2 µM
NCI-H522 lung
  TGI: 5.32 µM and 5.78 µM
K-562 leukemia
  TGI: 14.9 µM and 19.1 µM

## Cc1ccc(Nc2c(C#N)[n+]([O-])c3cc(Cl)ccc3[n+]2[O-])cc1
HOP-62 NSCLC
  TGI: > 100 µM
OVCAR-3 ovarian
  TGI: > 42.4 µM
NCI/ADR-RES ovarian
  TGI: > 100 µM
MDA-MB-435
  TGI: > 100 µM
ACHN renal
  TGI: > 100 µM
NCI-H460 lung
  TGI: > 100 µM
SF-268 CNS
  TGI: > 100 µM
MDA-N
  TGI: > 100 µM
786-0 renal
  TGI: > 100 µM
OVCAR-4 ovarian
  TGI: > 100 µM
SF-539 CNS
  TGI: > 100 µM
SF-295 CNS
  TGI: > 100 µM
MALME-3M melanoma
  TGI: > 100 µM
SK-MEL-2 melanoma
  TGI: > 100 µM
SN12C renal
  TGI: > 100 µM
MCF7 breast
  TGI: > 100 µM
UACC-62 melanoma
  TGI: > 100 µM
HS 578T breast
  TGI: > 100 µM
MDA-MB-231 breast
  TGI: > 100 µM
UACC-257 melanoma
  TGI: > 100 µM
T-47D breast
  TGI: > 100 µM
HT29 colon
  TGI: > 61.1 µM
A549 NSCLC
  TGI: > 100 µM
HCT-116 colon
  TGI: > 100 µM
RXF 393 renal
  TGI: > 100 µM
EKVX NSCLC
  TGI: > 100 µM
HCC-2998 colon
  TGI: > 100 µM
SW-620 colon
  TGI: > 100 µM
SNB-75 CNS
  TGI: > 100 µM
SK-MEL-28 melanoma
  TGI: > 100 µM
OVCAR-5 ovarian
  TGI: > 100 µM
A498 renal
  TGI: > 100 µM
SR leukemia
  TGI: > 36.3 µM
HOP-92 NSCLC
  TGI: > 100 µM
NCI-H23 lung
  TGI: > 100 µM
CAKI-1 renal
  TGI: > 100 µM
NCI-H226 lung
  TGI: > 100 µM
PC-3 prostate
  TGI: > 100 µM
COLO 205 colon
  TGI: > 100 µM
HCT-15 colon
  TGI: > 100 µM
TK-10 renal
  TGI: > 100 µM
KM12 colon
  TGI: > 100 µM
UO-31 renal
  TGI: > 100 µM
BT-549 breast
  TGI: > 100 µM
IGROV1 ovarian
  TGI: > 100 µM
OVCAR-8 ovarian
  TGI: > 100 µM
MOLT-4 leukemia
  TGI: > 100 µM
LOX IMVI melanoma
  TGI: > 100 µM
RPMI-8226 leukemia
  TGI: > 100 µM
HL-60(TB) leukemia
  TGI: 21.1 µM
CCRF-CEM leukemia
  TGI: > 100 µM
U251 CNS
  TGI: > 100 µM
SNB-19 CNS
  TGI: > 100 µM
SK-OV-3 ovarian
  TGI: > 100 µM
M14 melanoma
  TGI: > 100 µM
DU-145 prostate
  TGI: > 100 µM
NCI-H522 lung
  TGI: > 74.8 µM
K-562 leukemia
  TGI: > 100 µM
